This is an account of results in patent publication US4806566A, “Anti-gram positive bacteria tri-yne carbonates” (Merck & Co., Inc., priority 1987, dated 1989).

In brackets after ≈: the same amount, converted by molar mass. A value given as a limit tells only on which side of the number the result lay.

One data set relates to S. arueus. The data set is described as follows: Minimum inhibitory concentration, agar dilution, S. aureus. To be noted: Staphylococcus aureus, 24 h. The data set is classed as cell-based. How it is done: (§1) The free acid of the compound of formula I was prepared as aqueous solutions at a concentration of 1.28 mg/ml. Comparative agents vancomycin and streptomycin were prepared at 1.28 mg/ml in Sorensens' buffer, pH 7.
(§2) Each of the drugs was serially diluted twofold in 20×100 mm sterile petri dishes with the aid of a Pipetman. To each plate containing 1 ml of the antibiotic dilution was added 9 ml molten trypticase soy agar (TSA) (BBL) to yield final drug concentrations ranging from 128-0.031 mcg/ml. Plates were swirled to mix, allowed to solidify at room temperature and were stored overnight at 5° C.
(§3) Cultures were grown in trypticase soy broth (TSB) for 16 hours at 35° C. They were diluted 1-100 in TSB to obtain an inoculum of 10^4 cfu/spot when plated using a Denley multipoint inoculator calibrated to deliver 0.0015 ml. Inoculated plates were incubated for 24 hours at 35° C.
(§4) The minimum inhibitory concentration (MIC) was defined as the lowest concentration that allowed no growth or a barely visible haze.
On the technique in general: In agar dilution, organisms are placed on agar that contains the substance at set levels.

The test system of a further data set is Streptococcus faecalis. The data set is described as follows: Minimum inhibitory concentration, agar dilution, Streptococcus faecalis. The class given is cell-based. To be noted: Enterococcus faecalis, 24 h, one isolate per line, 10^4 cfu/spot, trypticase soy agar, 24 hours at 35° C. How it is done:
as §1, §2, §3, §4

Data set [1] deals with Staphyloccoccus aureus methicillin-resistant (S. aureus Meth-R). The data set is described as follows: Minimum inhibitory concentration, agar dilution, methicillin-resistant Staphylococcus aureus. The class given is cell-based. Conditions: one isolate per line, 10^4 cfu/spot, trypticase soy agar, 24 hours at 35° C. How it is done:
as §1, §2, §3, §4

The nature of data set [2]: Stability of the free acid to concentration. The data set is classed as physicochemical. To be noted: on concentration of solutions. How it is done:
(d) Due to the instability of the free acid of the compound of formula I to concentration, an alternate method was used to provide concentrated solutions. LH20 fractions 13-25 from Step C, 3250 ml, was extracted with 500 ml of 0.1M potassium phosphate buffer pH 7.2. The compound was extracted into the aqueous layer, 620 ml, which was reextracted with 200 ml of methylene chloride at pH 4.5. The methylene chloride extract was dried over anhydrous sodium sulfate. The extraction volumes could be adjusted to provide varying concentrations of the free acid of the compound of formula I in methylene chloride.

A word on the MIC: it is the smallest concentration in the dilution series that meets the test's criterion for growth inhibition. Lower therefore signals greater potency.

In the case of `[H]/N=C(/N)N[C@H]1[C@H](O)[C@@H](O)[C@H](O[C@@H]2O[C@@H](C)[C@](O)(C=O)[C@H]2O[C@@H]2O[C@@H](CO)[C@H](O)[C@@H](O)[C@@H]2NC)[C@@H](N/C(N)=N\[H])[C@@H]1O` [Streptomycin], the MIC in the data set on S. arueus is 116 µg/mL (≈ 199 µM); in the data set on Streptococcus faecalis it was greater than 128 µg/mL.
In the data set on Streptococcus faecalis, `CN[C@H](CC(C)C)C(=O)N[C@H]1C(=O)N[C@@H](CC(N)=O)C(=O)N[C@H]2C(=O)N[C@H]3C(=O)N[C@H](C(=O)N[C@H](C(=O)O)c4cc(O)cc(O)c4-c4cc3ccc4O)[C@H](O)c3ccc(c(Cl)c3)Oc3cc2cc(c3O[C@@H]2O[C@H](CO)[C@@H](O)[C@H](O)[C@H]2O[C@H]2C[C@](C)(N)[C@H](O)[C@H](C)O2)Oc2ccc(cc2Cl)[C@H]1O` [Vancomycin] displayed an MIC of 4 µg/mL (≈ 2.76 µM).
With `C#CC#CC#CC(O)C1OC(=O)OC1CCCCCCC(=O)O` (stereo not drawn) [Free Acid of the Compound of Formula I, 5-(1-hydroxy-2,4,6-heptatriynyl)-2-oxo-1,3 dioxolane], the figures for the MIC (in data set [1]; in the data set with S. arueus) were 0.5 µg/mL and 1 µg/mL, respectively. Besides, the “instability of the free acid to concentration” value in data set [2] was “instability”.
